Reference: the NIST ThermoML archive (doi:10.1016/j.jct.2017.03.006)
± gives the expanded uncertainty stated by the source.

Key:
[1] = 100 kPa, Liquid, Concentric cylinders viscometry
[2] = xn = mol fraction of the nth substance listed; conditions: Liquid, x1 = 1; for mass density: Vibrating tube method; for viscosity: Concentric cylinders viscometry

CCCCO [butan-1-ol]
[1]
Conditions | viscosity [mPa·s]
323.15 K | 1.406 ± 0.029
333.15 K | 1.134 ± 0.024

CCCCO [butan-1-ol] + Cc1ccc(C)c(C)c1
[2]
Conditions | mass density [kg/m3] | viscosity [mPa·s]
273.15 K, 100 kPa | 824.6 ± 0.7 | –
273.15 K, 1000 kPa | 825.2 ± 0.7 | –
273.15 K, 5000 kPa | 827.7 ± 0.7 | –
273.15 K, 10000 kPa | 830.8 ± 0.7 | –
273.15 K, 20000 kPa | 836.7 ± 0.7 | –
273.15 K, 30000 kPa | 842.3 ± 0.7 | –
273.15 K, 40000 kPa | 847.6 ± 0.8 | –
273.15 K, 50000 kPa | 852.5 ± 0.8 | –
273.15 K, 60000 kPa | 857.2 ± 0.8 | –
273.15 K, 70000 kPa | 861.7 ± 0.8 | –
273.15 K, 80000 kPa | 866 ± 0.8 | –
273.15 K, 90000 kPa | 870.1 ± 0.9 | –
273.15 K, 100000 kPa | 874 ± 0.9 | –
273.15 K, 120000 kPa | 881.5 ± 0.9 | –
273.15 K, 140000 kPa | 888.5 ± 0.9 | –
293.15 K, 100 kPa | 809.6 ± 0.7 | 2.953 ± 0.06
293.15 K, 1000 kPa | 810.2 ± 0.7 | –
293.15 K, 5000 kPa | 813.1 ± 0.7 | –
293.15 K, 10000 kPa | 816.5 ± 0.7 | –
293.15 K, 20000 kPa | 822.9 ± 0.7 | –
293.15 K, 30000 kPa | 829 ± 0.8 | –
293.15 K, 40000 kPa | 834.7 ± 0.8 | –
293.15 K, 50000 kPa | 840 ± 0.8 | –
293.15 K, 60000 kPa | 845 ± 0.8 | –
293.15 K, 70000 kPa | 849.8 ± 0.8 | –
293.15 K, 80000 kPa | 854.4 ± 0.9 | –
293.15 K, 90000 kPa | 858.7 ± 0.9 | –
293.15 K, 100000 kPa | 862.9 ± 0.9 | –
293.15 K, 120000 kPa | 870.8 ± 0.9 | –
293.15 K, 140000 kPa | 878.2 ± 1 | –
303.15 K, 100 kPa | – | 2.263 ± 0.046
313.15 K, 100 kPa | 794.1 ± 0.7 | 1.769 ± 0.036
313.15 K, 1000 kPa | 794.8 ± 0.7 | –
313.15 K, 5000 kPa | 798 ± 0.7 | –
313.15 K, 10000 kPa | 801.8 ± 0.7 | –
313.15 K, 20000 kPa | 808.9 ± 0.7 | –
313.15 K, 30000 kPa | 815.5 ± 0.8 | –
313.15 K, 40000 kPa | 821.6 ± 0.8 | –
313.15 K, 50000 kPa | 827.4 ± 0.8 | –
313.15 K, 60000 kPa | 832.7 ± 0.8 | –
313.15 K, 70000 kPa | 837.8 ± 0.9 | –
313.15 K, 80000 kPa | 842.7 ± 0.9 | –
313.15 K, 90000 kPa | 847.3 ± 0.9 | –
313.15 K, 100000 kPa | 851.7 ± 0.9 | –
313.15 K, 120000 kPa | 860 ± 1 | –
313.15 K, 140000 kPa | 867.8 ± 1 | –
323.15 K, 100 kPa | – | 1.406 ± 0.029
333.15 K, 100 kPa | 778 ± 0.7 | 1.134 ± 0.024
333.15 K, 1000 kPa | 778.8 ± 0.7 | –
333.15 K, 5000 kPa | 782.4 ± 0.7 | –
333.15 K, 10000 kPa | 786.5 ± 0.7 | –
333.15 K, 20000 kPa | 794.4 ± 0.7 | –
333.15 K, 30000 kPa | 801.6 ± 0.8 | –
333.15 K, 40000 kPa | 808.2 ± 0.8 | –
333.15 K, 50000 kPa | 814.4 ± 0.8 | –
333.15 K, 60000 kPa | 820.1 ± 0.8 | –
333.15 K, 70000 kPa | 825.6 ± 0.9 | –
333.15 K, 80000 kPa | 830.7 ± 0.9 | –
333.15 K, 90000 kPa | 835.6 ± 0.9 | –
333.15 K, 100000 kPa | 840.3 ± 1 | –
333.15 K, 120000 kPa | 849 ± 1 | –
333.15 K, 140000 kPa | 857.1 ± 1.1 | –
